The values that follow come from paper PMC8820799, “Angiogenesis and anti-leukaemia activity of novel indole derivatives as potent colchicine binding site inhibitors” (Journal of Enzyme Inhibition and Medicinal Chemistry, 2022).

In one data set the test system is MV4-11. Kind of data set: CCK-8 assay, MV4-11. It is filed as cell-based. The settings on record: Homo sapiens, leukaemia, AML, CCK-8, 72 h. The method, then:
(§1) Cells were seeded in 96-well plates at a density of 8 × 10^3 per well and exposed to different concentrations of compounds for 72 h. Subsequently, 10 µL CCK8 solution was added to each well and co-incubated for another 3–4 h at 37 °C. The absorbance was determined at 450 nm. Data was calculated with GraphPad Prism5 software.[32]

The subject of the next data set is HL60. Kind of data set: CCK-8 assay, HL60. It is filed as cell-based. The following applies: Homo sapiens, HL-60; leukaemia, APL; CCK-8, 72 h. Here is the method:
as §1

Another data set has as its system K562. Kind of data set: CCK-8 assay, K562. The data set is classed as cell-based. The settings on record: Homo sapiens, leukaemia, CML, CCK-8, 72 h. Here is the method:
as §1
Background: Tetrazolium dyes change colour on reduction, which living cells bring about.

Another data set concerns THP-1. Kind of data set: CCK-8 assay, THP-1. The data set is classed as cell-based. The settings on record: Homo sapiens, leukaemia, AML, CCK-8, 72 h. The method, then:
as §1

In the next data set the test system is CCRF-CEM. Briefly: CCK-8 assay, CCRF-CEM. It is filed as cell-based. The following applies: Homo sapiens, leukaemia, ALL, CCK-8, 72 h. The method, then: as §1
The subject of a further data set is Jurkat. Kind of data set: CCK-8 assay, Jurkat. It is filed as cell-based. The settings on record: Homo sapiens, leukaemia, ALL, CCK-8, 72 h. The method, then:
as §1

For the next data set, the system named is HuT 78. Briefly: CCK-8 assay, HuT 78. It is filed as cell-based. The settings on record: Homo sapiens, HuT78; leukaemia, ALL; CCK-8, 72 h. The method, then:
as §1

For data set [1], the target named is T1, Tubulin isolated from porcine brain tissue (Sus scrofa, UniProt P02550+P02554).
T1 construct: purchased Cytoskeleton (Denver, CO), via Beyotime, China; host or cells: porcine brain tissue
T1 sequence (P02554 whole entry): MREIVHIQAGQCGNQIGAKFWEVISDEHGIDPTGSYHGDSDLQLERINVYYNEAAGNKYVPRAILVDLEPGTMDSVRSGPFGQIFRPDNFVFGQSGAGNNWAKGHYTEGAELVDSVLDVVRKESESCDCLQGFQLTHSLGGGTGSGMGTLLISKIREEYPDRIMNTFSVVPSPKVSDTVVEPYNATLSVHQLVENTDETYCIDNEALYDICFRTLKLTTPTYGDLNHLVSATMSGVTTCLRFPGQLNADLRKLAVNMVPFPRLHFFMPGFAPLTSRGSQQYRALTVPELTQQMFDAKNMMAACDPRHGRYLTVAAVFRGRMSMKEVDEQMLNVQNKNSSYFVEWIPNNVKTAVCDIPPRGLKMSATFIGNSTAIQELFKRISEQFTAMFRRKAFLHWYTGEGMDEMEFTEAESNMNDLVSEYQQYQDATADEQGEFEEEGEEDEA
T1 sequence (P02550 whole entry): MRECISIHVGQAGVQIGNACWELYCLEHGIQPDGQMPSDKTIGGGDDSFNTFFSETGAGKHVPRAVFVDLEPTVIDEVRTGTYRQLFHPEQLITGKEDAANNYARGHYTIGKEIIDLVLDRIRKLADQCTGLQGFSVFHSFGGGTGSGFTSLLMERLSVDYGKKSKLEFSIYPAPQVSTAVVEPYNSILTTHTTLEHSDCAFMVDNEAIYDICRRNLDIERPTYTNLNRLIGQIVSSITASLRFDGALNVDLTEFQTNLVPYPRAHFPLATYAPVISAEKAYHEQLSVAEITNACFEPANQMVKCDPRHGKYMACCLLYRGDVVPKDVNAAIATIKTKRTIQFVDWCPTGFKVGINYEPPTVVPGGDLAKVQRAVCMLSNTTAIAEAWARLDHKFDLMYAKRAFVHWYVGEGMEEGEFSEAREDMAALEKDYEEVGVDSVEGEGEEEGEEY
Kind of data set: Tubulin polymerisation assay. The data set is classed as biochemical. The settings on record: triplicate, mean ± SD; read-out: Tubulin (tubulin inhibitory polymerisation IC50). Here is the method:
Tubulin polymerisation was determined with the tubulin polymerisation assay kit (Cytoskeleton, Denver, CO which was purchased from Cytoskeleton, Beyotime, China. Tubulin isolated from porcine brain tissue was used in this commercial kit.) It is based on the principal that light is scattered by microtubules to an extent that is proportional to the concentration of the microtubule polymer. Compounds that interact with tubulin will alter the polymerisation of tubulin, and this can be detected using a spectrophotometer. Tubulin polymerisation dynamics was monitored through measuring the change of absorbance at 340 nm every 2 min for 30 min at 37 °C on a spectrophotometer.

Data set [2] concerns transgenic zebrafish (FLK-1:EGFP). Briefly: Zebrafish angiogenesis assay (ISVs). The data set is classed as in vivo. The following applies: Danio rerio, transgenic zebrafish; triplicate, mean ± SD; read-out: Zebrafish (antiangiogenic activity IC50). Here is the method: The transgenic flk: enhanced GFP zebrafish embryos were generated by pair-wise mating, collected and sorted into the 6-well plate (n = 30 per well) with 1 ml of aquaculture water (0.2 g/L of Instant Ocean Salt in distilled water) and raised at 28 °C. Then the embryos staged at 12 h post fertilisation (hpf) were treated with the indicated concentrations of compounds which were added into embryo water. About 30 embryos were screened for each concentration gradient. At 30hpf, the treated embryos were anaesthetised with 0.02% tricaine in embryo water and photographed. The numbers of ISVs were recorded under confocal microscopy. Results were obtained from three independent determinations and presented as mean ± SD.[38]

In general, IC50 refers to the concentration that gives 50% inhibition. For `COc1ccc(/C=C\c2cc(OC)c(OC)c(OC)c2)cc1O` [CA-4, Combretastatin A-4, reference compound], the IC50 with MV4-11 is 0.12 ± 0.03 µM; in the data set with HL60, 0.26 ± 0.05 µM; in the data set on K562 it was 0.27 ± 0.01 µM; with THP-1, 0.08 ± 0.01 µM; with CCRF-CEM it was 0.71 ± 0.11 µM; with Jurkat, 0.19 ± 0.02 µM. Moreover, the half-inhibitory concentration (IC50) with HuT 78 was found to be 0.24 ± 0.04 µM.

One may read the melting point as the temperature, or range, at which the solid turns liquid. Molecule `CCCn1cc(/C=C/C(=O)c2cccc(OC)c2)c2ccccc21` [Compound 27c, (E)-1–(3-Methoxyphenyl)-3–(1-propyl-1H-indol-3-yl)prop-2-en-1-one] had a melting point of 161 to 162 °C. Moreover, the IC50 in [1] amounted to 52.1 ± 2.9 µM. In addition, the half-inhibitory concentration (IC50) in data set [2] came out at 18.6 ± 3.2 µM.

For `O=C(/C=C/c1cn(S(=O)(=O)c2ccccc2)c2ccccc12)c1ccc(C(F)(F)F)cc1` [Compound 28e, (E)-3–(1-(phenylsulfonyl)-1H-indol-3-yl)-1–(4-(trifluoromethyl)phenyl)prop-2-en-1-one], the melting point fell in the range of 167 to 170 °C. In data set [1], the half-inhibitory concentration (IC50) was determined as 10.4 ± 0.7 µM. In addition, the half-inhibitory concentration (IC50) in data set [2] was determined as 5.8 ± 2.1 µM.

`COc1cc(C(=O)/C=C/c2cn(C)c3ccccc23)cc(OC)c1OC` [Compound 29a, (E)-3–(1-Methyl-1H-indol-3-yl)-1–(3,4,5-trimethoxyphenyl)prop-2-en-1-one] returned a melting point of 160 to 162 °C. The half-inhibitory concentration (IC50) in data set [1] is 49.9 ± 8.5 µM. For the same molecule, in data set [2], the IC50 was 15.7 ± 3.2 µM.

On to `COc1cc(C(=O)/C=C/c2cn(Cc3ccccc3)c3ccccc23)cc(OC)c1OC` [Compound 29d, (E)-3–(1-Benzyl-1H-indol-3-yl)-1–(3,4,5-trimethoxyphenyl)prop-2-en-1-one], for which the melting point was 160 to 163 °C. Besides, the IC50 in data set [1] is 24.8 ± 2.1 µM. For the same molecule, in data set [2], the 50% inhibitory concentration (IC50) was determined as 6.7 ± 0.5 µM.

Take `COc1cc(C(=O)/C=C/c2ccnc3ccccc23)cc(OC)c1OC` [DYT-1, (E)-3-(quinolin-4-yl)-1–(3,4,5-trimethoxyphenyl)prop-2-en-1-one]: the 50% inhibitory concentration (IC50) in data set [1] came out at 25.6 µM; in data set [2], 38.4 µM; with K562, 6.2 µM; in the data set with Jurkat, 7.9 µM.
